Experimental findings from patent US4772633A, “6-pyridyl- and 6-phenyl-3-phenyl-1-hexenes and -1-hexynes, composition containing them, and insecticidal and acaricidal method of using them” (Sumitomo Chemical Company, Limited, priority 1986, dated 1988) are described below.

Values after ≈ are worked out from the molar mass of the structure shown. Where two headings read alike, the source gives them in different places.

Type in all cases: in vivo
In assay [1] the test system is brown rice planthoppers (Nilaparavata lugens). The assay can be described thus: Test Example 7: mortality and residual effect on brown rice planthoppers on sprayed potted rice plants. The settings on record: Oryza sativa, 24 h. As for the experimental part:
The emulsifiable concentrates of the following compounds and control compounds obtained according to Formulation example 2 were each diluted with water one thousand times (corresponding to 100 ppm) and each of thus prepared solutions was sprayed at the rate of 20 ml/2 pots to the rice plant seedlings planted in Wagner pots having a surface area of one ten thousandth are. After air-drying, the threated plants were covered with the iron wire cages, and about 15 adults of brown rice planthoppers (Nilaparavata lugens) were liberated thereto. Further, about 15 adults thereof were also liberated thereto 4 days after the application to examine the residual effects. Twenty four hours after each liberation, the dead and alive adults were examined to calculate the mortality.

For assay [2], the system named is rice stem borer (Chilo suppressalis). The assay is described as follows: Test Example 5: LC50 against rice stem borer larvae (artificial feed). The note with it: larvae 10 days old, two replications. The source says: Ten of the larvae of the 10 days old were liberated thereon.
Assay [3] relates to carmine spider mite (Tetranychus cinnabarinus). The assay can be described thus: Test Example 8: degree of damage of kidney bean plant by carmine spider mite. The settings on record: 500 ppm, sprayed 15 ml/pot plus 2 ml to soil; after 8 days; 25° C. As for the experimental part:
The female adults of carmine spider mite (Tetranychus cinnabarinus) were put at a rate of 10 adults/leaf on the leaves of potted kidney bean (at the primordial leaf stage) which had elapsed 7 days after sowing, and placed in a constant-temperature room kept at 25° C. After 6 days, the 200-fold aqueous dilute solutions (corresponding to 500 ppm), prepared from the emulsifiable concentrates of the following present compounds and control compounds prepared according to Formulation example 2, were each sprayed at a rate of 15 ml/pot on a turn table. At the same time, the soil in the pot was treated with 2 ml of each aqueous solution. After 8 days, the degree of damage of the plant by the mite was examined.
-: No damage is observed.
+: Slight damage is observed.
++: The same damage as in the untreated plot is observed.

Assay [4] deals with houseflies (Musca domestica) of WHO strains. The assay is described as follows: Test Example 6: LC50 against adult female houseflies of WHO strains (sucrose bait). The note with it: filter paper with sucrose bait, adult females, after 48 hours, two replications. The source says: Thirty milligrams of sucrose were uniformly placed on the filter paper as bait. Thereafter, 10 adult female houseflies (Musca domestica) of WHO strains were liberated in the cup, which was then covered witha lid.

Assay [5] has as its system resistant strain of green rice leafhopper (Nephotetix cincticecs). The assay is described as follows: Test Example 3: LC50 against adults of a resistant strain of green rice leafhopper (rice seedling dipping). The note with it: Nephotettix cincticeps, 24 h, read-out: LC50 value. As for the experimental part:
The emulsifiable concentrates of the following present compounds and control compounds obtained according to Formulation example 2 were each diluted with water to a prescribed concentration, and rice seedlings (about 12 cm in length) were dipped for 1 minute in the resulting aqueous dilute solutions. After air-drying, the seedlings were placed in test tube, and 10 adults of a resistant strain of green rice leafhopper (Nephotetix cincticecs) were liberated in the tube. After one day, the dead and alive of the adults were examined to obtain LC50 (50% lethal concentration)(two replications).

Assay [6] deals with brown rice planthopper (Nilaparvata lugens). The assay is described as follows: Test Example 4: LC50 against adults of brown rice planthopper (rice seedling dipping). The settings on record: 24 h, rice seedlings dipped, 10 adults, after one day, two replications. The source says: After air-drying, the seedlings were placed in a test tube, and 10 adults of brown rice planthopper (Nilaparvata lugens) were liberated in the tube.

For the molecule `CCC(C)(CCCc1cccc(Oc2ccccc2)c1)c1ccc(Cl)cc1` (stereo not shown) [(A), reference compound], the mortality at 100 ppm turned out to be 44% in assay [1] (read-out: Mortality (%) liberated 4 days after application) and 71% in assay [1] (read-out: Mortality (%) liberated just after air-drying). The 50% lethal concentration (LC50) in assay [2] was 230 µg/mL (≈ 607 µM); in assay [4] it was ~500 µg/mL (≈ 1320 µM); in assay [5], ~500 µg/mL (≈ 1320 µM); in assay [6] it was > 500 µg/mL. Besides, the Degree of damage result in assay [3] was “+ ~ ++”.
